Assay results from patent US20100267561A1, “HERBICIDAL PYRIDAZINONE DERIVATIVES” (priority 2007, published 2010).

What was measured:
[1] = test system: Canada horseweed (Conyza canadensis); assay: Test E pre-/postemergence plant response; type: in vivo; details: Postemergence, scale 0 to 100
Method in brief: (§1)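 Pre- and postemergence greenhouse test; compounds formulated in non-phytotoxic solvent with surfactant, postemergence plants 2–18 cm (1- to 4-leaf stage). Visual rating against untreated controls after 14 to 21 days, on a 0 (no effect) to 100 (complete control) scale.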

[2] = test system: field bindweed (Convolvulus arvensis); assay: Test E pre-/postemergence plant response; type: in vivo; details: scale 0 to 100
Method in brief: as §1

[3] = test system: spanishneedles (Bidens bipinnata); assay: Test E pre-/postemergence plant response; type: in vivo; details: scale 0 to 100
Method in brief: as §1

[4] = test system: wild oat (AVEFA, Avena fatua); assay: Test G mixtures of Compound 26 with crop safeners, postemergence plant response; type: in vivo; details: applied alone
Protocol: This test evaluated the effect of mixtures of Compound 26 with commercial crop safeners cloquintocet-mexyl, mefenpyr-diethyl, and fenchlorazole-ethyl on three plant species. Seeds of winter wheat (TRZAW, Triticum aestivum), winter barley (HORVX, Hordeum vulgare), and wild oat (AVEFA, Avena fatua) (a weed) were planted into a silt loam soil. Plants from these seeds were treated postemergence using test chemicals formulated in a non-phytotoxic solvent mixture that included a surfactant. Plants ranged in height from 6 to 10 cm (2- to 3-leaf stage).
Plants were grown in a greenhouse using supplemental lighting to maintain a photoperiod of about 14 hours; daytime and nighttime temperatures were about 22-26° C. and 15-19° C., respectively. Balanced fertilizer was applied through the watering system. Treatments consisted of Compound 26 and the above mentioned safeners alone and in combination using a spray volume of 281 L/ha. Each treatment was replicated four times. Treated plants and controls were maintained in a greenhouse for 15 days, after which time all treated plants were compared to controls and visually evaluated. Plant response ratings were calculated as the means of the four replicates based on a scale of 0 to 100 where 0 is no effect and 100 is complete control and are summarized in Tables G1 to G3. Because the safeners alone caused no injury at the rates tested, the expected effect of a mixture of Compound 26 with a safener is the same as the observed effect of Compound 26 alone.
The highest application rate of each safener was tested alone to confirm the absence of herbicidal activity on the test species when appled postemergence at 125 g ai/ha. Therefore, an extrapolated result of zero for each safener alone at 16, 31, or 62 g ai/ha was used to calculate the mixture response of Compound 26 and these safener application rates.

[5] = test system: wild oat (AVEFA, Avena fatua); assay: Test F mixtures with safener cloquintocet-mexyl, pre-/postemergence plant response; type: in vivo; details: applied alone
Text: (§2) This test evaluated the effect of mixtures of Compound 3, Compound 11, or Compound 12 with the commercial crop safener cloquintocet-mexyl on three plant species. Seeds of test plants consisting of winter wheat (TRZAW, Triticum aestivum), winter barley (HORVX, Hordeum vulgare), and wild oat (AVEFA, Avena fatua) (a weed) were planted into a blend of loam soil and sand and treated preemergence with a directed soil spray using test chemicals formulated in a non-phytotoxic solvent mixture that included a surfactant. At the same time, plants selected from these crop and weed species were treated with postemergence applications of the test chemicals formulated in the same manner. Plants ranged in height from 2 to 18 cm (1- to 4-leaf stage) for postemergence treatments.
(§3) Plants were grown in a greenhouse using supplemental lighting to maintain a photoperiod of about 16 hours; daytime and nighttime temperatures were about 24-30° C. and 19-21° C., respectively. Balanced fertilizer was applied through the watering system. Treatments consisted of Compound 3, Compound 11, or Compound 12 and the above mentioned safener alone and in combination using a spray volume of 457 L/ha. Each treatment was replicated three times. Treated plants and controls were maintained in a greenhouse for 14 to 21 days, after which time all treated plants were compared to controls and visually evaluated. Plant response ratings were calculated as the means of the three replicates and are summarized in Tables F1 to F6, and are based on a scale of 0 to 100 where 0 is no effect and 100 is complete control. Because cloquintocet-mexyl alone caused no injury at the rates tested, the expected effect of a mixture of Compound 3 with cloquintocet-mexyl is the same as the observed effect of Compound 3 applied alone.

[6] = test system: winter barley (HORVX, Hordeum vulgare); assay: as above; type: in vivo; details: applied alone
Text: as §2, §3

[7] = test system: winter wheat (TRZAW, Triticum aestivum); assay: as above; type: in vivo; details: applied alone
Text: as §2, §3

| Molecule | Plant response rating, Horseweed ([1]; 4 g ai/ha) | Plant response rating, Horseweed ([1]; 8 g ai/ha) | Plant response rating, Horseweed ([1]; 16 g ai/ha) | Plant response rating, Horseweed ([1]; 31 g ai/ha) | Plant response rating, Field Bindweed ([2]; 4 g ai/ha, Postemergence) | Plant response rating, Field Bindweed ([2]; 8 g ai/ha, Preemergence) | Plant response rating, Field Bindweed ([2]; 16 g ai/ha, Preemergence) | Plant response rating, Field Bindweed ([2]; 31 g ai/ha, Preemergence) | Plant response rating, Field Bindweed ([2]; Postemergence, 8 g ai/ha) | Plant response rating, Field Bindweed ([2]; Postemergence, 16 g ai/ha) | Plant response rating, Field Bindweed ([2]; Postemergence, 31 g ai/ha) | Plant response rating, Field Bindweed ([2]; Preemergence, 4 g ai/ha) | Plant response rating, Spanishneedles ([3]; 4 g ai/ha, Postemergence) | Plant response rating, Spanishneedles ([3]; 16 g ai/ha, Preemergence) | Plant response rating, Spanishneedles ([3]; 31 g ai/ha, Preemergence) | Plant response rating, Spanishneedles ([3]; Postemergence, 8 g ai/ha) | Plant response rating, Spanishneedles ([3]; Postemergence, 16 g ai/ha) | Plant response rating, Spanishneedles ([3]; Preemergence, 4 g ai/ha) | melting point | AVEFA Obsd. (observed effect) plant response rating, scale 0 to 100 ([5]; postemergence, 4 g a.i./ha) | also measured |
| --- | --- | --- | --- | --- | --- | --- | --- | --- | --- | --- | --- | --- | --- | --- | --- | --- | --- | --- | --- | --- | --- |
| CCc1cc(-c2ccc(C(F)(F)F)cc2)nn1-c1c(OS(C)(=O)=O)cnn(C)c1=O [Compound 19] | 0 | 0 | 0 | 0 | 0 | 0 | 0 | 0 | 0 | 0 | 0 | 0 | 0 | 0 | 0 | 0 | 0 | 0 | – | – | – |
| CCc1c(C)c(-c2ccc(Cl)cc2)nn1-c1c(O)cnn(C)c1=O [Compound 26, 4-[3-(4-chlorophenyl)-5-ethyl-4-methyl-1H-pyrazol-1-yl]-5-hydroxy-2-methyl-3(2H)-pyridazinone] | – | – | – | – | – | – | – | – | – | – | – | – | – | – | – | – | – | – | 227 to 229 °C | – | AVEFA Obsd. (observed effect) plant response rating, scale 0 to 100 ([4]; 62 g a.i./ha): 89; AVEFA Obsd. (observed effect) plant response rating, scale 0 to 100 ([4]; 125 g a.i./ha): 97; AVEFA Obsd. (observed effect) plant response rating, scale 0 to 100 ([4]; 250 g a.i./ha): 99 |
| CCc1cc(-c2ccc(C(F)(F)F)cc2)nn1-c1c(O)cnn(C)c1=O [Compound 11, 4-[5-ethyl-3-[4-(trifluoromethyl)phenyl]-1H-pyrazol-1-yl]-5-hydroxy-2-methyl-3(2H)-pyridazinone] | 0 | 0 | 0 | 0 | 0 | 0 | 0 | 0 | 0 | 0 | 0 | 0 | 0 | 0 | 0 | 0 | 0 | 0 | 202 to 204 °C | 75 | Plant response rating, Spanishneedles ([3]; Postemergence, 31 g ai/ha): 0; AVEFA Obsd. (observed effect) plant response rating, scale 0 to 100 ([5]; postemergence, 8 g a.i./ha): 97; AVEFA Obsd. (observed effect) plant response rating, scale 0 to 100 ([5]; postemergence, 16 g a.i./ha): 98; AVEFA Obsd. (observed effect) plant response rating, scale 0 to 100 ([5]; preemergence, 4 g a.i./ha): 58; AVEFA Obsd. (observed effect) plant response rating, scale 0 to 100 ([5]; preemergence, 8 g a.i./ha): 77; AVEFA Obsd. (observed effect) plant response rating, scale 0 to 100 ([5]; preemergence, 16 g a.i./ha): 93; HORVX Obsd. (observed effect) plant response rating, scale 0 to 100 ([6]; postemergence, 4 g a.i./ha): 5; HORVX Obsd. (observed effect) plant response rating, scale 0 to 100 ([6]; postemergence, 8 g a.i./ha): 55; HORVX Obsd. (observed effect) plant response rating, scale 0 to 100 ([6]; postemergence, 16 g a.i./ha): 90; HORVX Obsd. (observed effect) plant response rating, scale 0 to 100 ([6]; preemergence, 4 g a.i./ha): 22; HORVX Obsd. (observed effect) plant response rating, scale 0 to 100 ([6]; preemergence, 8 g a.i./ha): 70; HORVX Obsd. (observed effect) plant response rating, scale 0 to 100 ([6]; preemergence, 16 g a.i./ha): 92; TRZAW Obsd. (observed effect) plant response rating, scale 0 to 100 ([7]; postemergence, 4 g a.i./ha): 18; TRZAW Obsd. (observed effect) plant response rating, scale 0 to 100 ([7]; postemergence, 8 g a.i./ha): 3; TRZAW Obsd. (observed effect) plant response rating, scale 0 to 100 ([7]; postemergence, 16 g a.i./ha): 32; TRZAW Obsd. (observed effect) plant response rating, scale 0 to 100 ([7]; preemergence, 4 g a.i./ha): 32; TRZAW Obsd. (observed effect) plant response rating, scale 0 to 100 ([7]; preemergence, 8 g a.i./ha): 72; TRZAW Obsd. (observed effect) plant response rating, scale 0 to 100 ([7]; preemergence, 16 g a.i./ha): 92 |
| 4-[3-(4-chlorophenyl)-5-methyl-1H-pyrazol-3-yl]-5-hydroxy-2-methyl-3(2H)-pyridazinone [Compound 3] | – | – | – | – | – | – | – | – | – | – | – | – | – | – | – | – | – | – | – | 27 | AVEFA Obsd. (observed effect) plant response rating, scale 0 to 100 ([5]; postemergence, 8 g a.i./ha): 67; AVEFA Obsd. (observed effect) plant response rating, scale 0 to 100 ([5]; postemergence, 16 g a.i./ha): 83; AVEFA Obsd. (observed effect) plant response rating, scale 0 to 100 ([5]; preemergence, 4 g a.i./ha): 0; AVEFA Obsd. (observed effect) plant response rating, scale 0 to 100 ([5]; preemergence, 8 g a.i./ha): 35; AVEFA Obsd. (observed effect) plant response rating, scale 0 to 100 ([5]; preemergence, 16 g a.i./ha): 60; HORVX Obsd. (observed effect) plant response rating, scale 0 to 100 ([6]; postemergence, 4 g a.i./ha): 0; HORVX Obsd. (observed effect) plant response rating, scale 0 to 100 ([6]; postemergence, 8 g a.i./ha): 0; HORVX Obsd. (observed effect) plant response rating, scale 0 to 100 ([6]; postemergence, 16 g a.i./ha): 15; HORVX Obsd. (observed effect) plant response rating, scale 0 to 100 ([6]; preemergence, 4 g a.i./ha): 10; HORVX Obsd. (observed effect) plant response rating, scale 0 to 100 ([6]; preemergence, 8 g a.i./ha): 32; HORVX Obsd. (observed effect) plant response rating, scale 0 to 100 ([6]; preemergence, 16 g a.i./ha): 68; TRZAW Obsd. (observed effect) plant response rating, scale 0 to 100 ([7]; postemergence, 4 g a.i./ha): 0; TRZAW Obsd. (observed effect) plant response rating, scale 0 to 100 ([7]; postemergence, 8 g a.i./ha): 0; TRZAW Obsd. (observed effect) plant response rating, scale 0 to 100 ([7]; postemergence, 16 g a.i./ha): 22; TRZAW Obsd. (observed effect) plant response rating, scale 0 to 100 ([7]; preemergence, 4 g a.i./ha): 0; TRZAW Obsd. (observed effect) plant response rating, scale 0 to 100 ([7]; preemergence, 8 g a.i./ha): 33; TRZAW Obsd. (observed effect) plant response rating, scale 0 to 100 ([7]; preemergence, 16 g a.i./ha): 77 |
